# Active and inactive are the calls of the source.
# Columns and labels:
# [1] = Luminescence Cell-Based Dose Response HTS to Identify Activators of Luciferase Translation or Activity in H4 […] Cells. [Related pubchem assays: 1829 (Project Summary), 1814 (Primary HTS)]; format: functional
# [2] = target: FAD-linked sulfhydryl oxidase ALR (Homo sapiens, UniProt P55789); test: inhibitors of human ALR sulfhydryl oxidase, dose response, biochemical, H2O2 detection, luminescence, cherry-pick (AID 493248)
# Chain of FAD-linked sulfhydryl oxidase ALR (P55789 whole entry): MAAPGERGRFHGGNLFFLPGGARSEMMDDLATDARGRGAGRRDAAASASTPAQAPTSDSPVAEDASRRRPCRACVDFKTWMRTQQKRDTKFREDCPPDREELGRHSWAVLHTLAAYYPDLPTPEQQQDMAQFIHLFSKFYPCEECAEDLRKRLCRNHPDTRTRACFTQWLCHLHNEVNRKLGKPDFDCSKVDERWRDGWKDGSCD
# Genome polyprotein = Genome polyprotein (dengue virus type 2, UniProt P29990); test: Dengue-2 NS5 methyltransferase inhibitors, primary screen, biochemical, confirmation dose response (AID 588689); format: functional
# Chain of Genome polyprotein (P29990 2492-3391 limits assumed): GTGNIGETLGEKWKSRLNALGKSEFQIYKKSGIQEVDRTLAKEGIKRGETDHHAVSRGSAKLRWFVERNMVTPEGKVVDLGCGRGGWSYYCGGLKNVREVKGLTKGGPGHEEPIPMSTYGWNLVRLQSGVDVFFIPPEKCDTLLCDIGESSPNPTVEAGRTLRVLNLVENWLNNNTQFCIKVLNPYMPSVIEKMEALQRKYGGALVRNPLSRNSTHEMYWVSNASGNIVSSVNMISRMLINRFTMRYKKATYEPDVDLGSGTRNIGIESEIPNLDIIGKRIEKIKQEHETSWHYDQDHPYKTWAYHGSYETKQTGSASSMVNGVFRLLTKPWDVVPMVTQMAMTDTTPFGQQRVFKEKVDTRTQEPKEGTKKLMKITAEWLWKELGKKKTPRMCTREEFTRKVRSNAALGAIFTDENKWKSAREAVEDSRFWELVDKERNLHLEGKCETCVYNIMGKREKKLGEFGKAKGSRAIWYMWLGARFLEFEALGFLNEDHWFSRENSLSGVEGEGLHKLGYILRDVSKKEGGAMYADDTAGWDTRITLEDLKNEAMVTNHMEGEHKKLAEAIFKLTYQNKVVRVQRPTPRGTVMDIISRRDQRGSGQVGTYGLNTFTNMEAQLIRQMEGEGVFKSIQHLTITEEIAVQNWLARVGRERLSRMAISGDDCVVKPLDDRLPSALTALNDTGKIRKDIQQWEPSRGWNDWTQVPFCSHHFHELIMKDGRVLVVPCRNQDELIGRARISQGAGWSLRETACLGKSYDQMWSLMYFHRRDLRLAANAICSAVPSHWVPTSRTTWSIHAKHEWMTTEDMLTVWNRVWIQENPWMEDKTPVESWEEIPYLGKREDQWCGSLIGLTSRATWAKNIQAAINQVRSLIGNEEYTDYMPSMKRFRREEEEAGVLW
# Large T antigen = Large T antigen (Simian virus 40, UniProt P03070); format: functional, Betapolyomavirus macacae;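 further: Confirmatory-stage PubChem screen for compounds that inhibit SV40 T antigen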
# Chain of Large T antigen (P03070 whole entry): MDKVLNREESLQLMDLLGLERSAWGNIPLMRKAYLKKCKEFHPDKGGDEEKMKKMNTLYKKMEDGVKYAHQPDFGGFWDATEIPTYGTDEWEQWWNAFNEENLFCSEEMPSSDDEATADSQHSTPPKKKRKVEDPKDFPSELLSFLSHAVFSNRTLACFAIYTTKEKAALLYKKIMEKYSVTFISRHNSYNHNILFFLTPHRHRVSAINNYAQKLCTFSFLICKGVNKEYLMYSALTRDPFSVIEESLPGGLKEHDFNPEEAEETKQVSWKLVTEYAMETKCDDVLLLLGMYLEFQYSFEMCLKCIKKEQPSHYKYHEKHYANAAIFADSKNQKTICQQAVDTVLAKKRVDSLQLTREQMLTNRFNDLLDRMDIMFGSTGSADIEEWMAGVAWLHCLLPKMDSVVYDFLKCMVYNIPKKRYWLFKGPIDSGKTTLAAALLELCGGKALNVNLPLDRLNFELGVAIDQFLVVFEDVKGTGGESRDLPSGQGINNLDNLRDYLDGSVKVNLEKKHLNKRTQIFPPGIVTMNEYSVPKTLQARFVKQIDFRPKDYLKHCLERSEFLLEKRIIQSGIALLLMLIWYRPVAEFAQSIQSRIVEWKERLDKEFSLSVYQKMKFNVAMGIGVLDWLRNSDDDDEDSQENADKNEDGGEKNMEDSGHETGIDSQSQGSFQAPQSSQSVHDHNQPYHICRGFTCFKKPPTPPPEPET
# [3] = target: T1, Rac GTPase-activating protein 1 (Homo sapiens, UniProt Q9H0H5); test: MgcRacGAP GTPase-activating activity inhibitors, confirmation, biochemical, ADP Hunter fluorescence, primary and confirmatory (AID 624330); format: functional
# T1 sequence (Q9H0H5 whole entry): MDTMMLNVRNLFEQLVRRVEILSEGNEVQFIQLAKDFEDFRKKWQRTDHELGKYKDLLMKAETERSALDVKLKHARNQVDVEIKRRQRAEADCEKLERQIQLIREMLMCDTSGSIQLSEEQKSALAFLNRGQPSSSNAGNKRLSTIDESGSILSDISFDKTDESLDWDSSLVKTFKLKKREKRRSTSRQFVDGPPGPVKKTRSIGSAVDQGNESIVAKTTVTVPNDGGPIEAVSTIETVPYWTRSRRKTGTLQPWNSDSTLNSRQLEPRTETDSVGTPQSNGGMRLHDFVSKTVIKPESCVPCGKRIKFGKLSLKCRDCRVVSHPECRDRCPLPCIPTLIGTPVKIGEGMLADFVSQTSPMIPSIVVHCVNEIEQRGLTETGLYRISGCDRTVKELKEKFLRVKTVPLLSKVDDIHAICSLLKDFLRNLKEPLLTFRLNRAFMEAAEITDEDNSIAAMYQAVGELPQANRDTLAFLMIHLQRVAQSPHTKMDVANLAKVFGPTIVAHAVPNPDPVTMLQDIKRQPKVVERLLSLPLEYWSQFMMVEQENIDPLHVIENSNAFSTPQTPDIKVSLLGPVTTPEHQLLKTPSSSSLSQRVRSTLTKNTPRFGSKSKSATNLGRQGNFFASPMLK
# [4] = Luminescence Cell-Based Dose Confirmation HTS to Identify Inhibitors of Platelet Dense Granule Release. [Related pubchem assays: 1663 (Primary HTS), 1678 (Summary of Project)]; format: functional
# [5] = target: Luciferin 4-monooxygenase (Photinus pyralis, UniProt P08659); test: firefly luciferase enzyme inhibitors, dose response, biochemical, luminescence (AID 1891)
# Chain of Luciferin 4-monooxygenase (P08659 whole entry): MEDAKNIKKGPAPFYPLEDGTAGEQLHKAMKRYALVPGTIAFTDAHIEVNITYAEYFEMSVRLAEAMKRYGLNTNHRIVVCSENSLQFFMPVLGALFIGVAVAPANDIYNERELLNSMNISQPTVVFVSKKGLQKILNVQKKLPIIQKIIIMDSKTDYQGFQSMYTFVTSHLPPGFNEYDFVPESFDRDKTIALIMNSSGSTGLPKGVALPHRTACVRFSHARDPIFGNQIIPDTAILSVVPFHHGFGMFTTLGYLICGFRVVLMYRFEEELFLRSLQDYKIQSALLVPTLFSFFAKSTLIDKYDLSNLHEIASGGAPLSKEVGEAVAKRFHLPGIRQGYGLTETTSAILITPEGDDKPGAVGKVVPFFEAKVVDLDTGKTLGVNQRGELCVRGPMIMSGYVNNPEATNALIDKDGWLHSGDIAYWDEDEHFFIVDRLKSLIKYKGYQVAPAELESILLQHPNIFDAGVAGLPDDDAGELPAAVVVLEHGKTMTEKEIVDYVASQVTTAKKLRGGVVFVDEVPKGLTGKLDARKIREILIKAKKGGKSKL
# Cytochrome P450 2C9 = Cytochrome P450 2C9 (Homo sapiens, UniProt P11712)
# Chain of Cytochrome P450 2C9 (P11712 whole entry): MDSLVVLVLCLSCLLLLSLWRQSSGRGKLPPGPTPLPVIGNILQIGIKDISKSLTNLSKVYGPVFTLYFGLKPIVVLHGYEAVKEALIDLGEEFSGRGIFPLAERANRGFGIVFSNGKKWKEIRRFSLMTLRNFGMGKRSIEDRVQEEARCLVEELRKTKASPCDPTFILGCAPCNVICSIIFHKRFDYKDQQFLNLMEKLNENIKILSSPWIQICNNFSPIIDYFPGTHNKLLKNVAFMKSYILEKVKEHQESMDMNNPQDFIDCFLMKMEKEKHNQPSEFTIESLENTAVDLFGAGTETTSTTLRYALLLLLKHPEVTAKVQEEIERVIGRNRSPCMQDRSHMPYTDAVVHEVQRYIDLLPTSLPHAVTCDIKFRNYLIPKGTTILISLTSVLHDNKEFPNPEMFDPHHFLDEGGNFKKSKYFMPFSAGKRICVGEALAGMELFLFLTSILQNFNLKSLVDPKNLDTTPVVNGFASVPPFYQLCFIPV
# [6] = target: T2, Heat shock factor protein 1 (Mus musculus, UniProt P38532); test: inhibition of MG132-induced HSE-luciferase signal, confirmation, cell-based, NIH3T3, luminescence, dose retest (AID 2382); format: functional;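 further: NIH3T3 fibroblasts with HSF1-driven luciferase reporter stressed by proteasome inhibitor MG132; luminescence from HSF1-driven luciferase expression after 8 hours of MG132 stress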
# T2 sequence (P38532 whole entry): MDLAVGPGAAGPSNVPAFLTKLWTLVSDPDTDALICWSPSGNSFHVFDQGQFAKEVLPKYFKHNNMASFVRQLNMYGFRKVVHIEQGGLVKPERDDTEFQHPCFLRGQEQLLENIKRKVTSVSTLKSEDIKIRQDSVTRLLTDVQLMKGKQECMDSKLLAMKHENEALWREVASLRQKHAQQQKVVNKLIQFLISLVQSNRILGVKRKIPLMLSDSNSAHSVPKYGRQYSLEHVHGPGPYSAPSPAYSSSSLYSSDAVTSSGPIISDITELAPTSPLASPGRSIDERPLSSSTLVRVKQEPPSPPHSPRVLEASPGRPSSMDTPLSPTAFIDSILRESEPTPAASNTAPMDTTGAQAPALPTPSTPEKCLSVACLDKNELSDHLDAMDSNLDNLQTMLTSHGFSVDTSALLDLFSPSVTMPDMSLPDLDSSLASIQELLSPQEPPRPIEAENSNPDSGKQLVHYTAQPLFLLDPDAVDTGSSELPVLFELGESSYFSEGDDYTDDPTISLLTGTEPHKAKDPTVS
# INS1 = test: beta cell apoptosis inhibitors, cytokine rescue, dose response, luminescence, retest (AID 449756); format: functional, cell-based; conditions: Rattus norvegicus;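 further: cell death triggered by IL-1 beta plus TNF-alpha plus IFN-gamma mixture; protective hits raise ATP signal compared with cytokine alone wells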
# [7] = HEp-2 cell cytotoxicity, dose response, cytotoxicity control for RSV inhibitor project, HTS (AID 2410); format: functional; conditions: human respiratory syncytial virus
# [8] = target: T3, Calpain-2 catalytic subunit (Sus scrofa, UniProt P43367); test: pig calpain II inhibitor potency, dose response, biochemical, fluorogenic peptide substrate (AID 1420); format: functional
# T3 sequence (P43367 whole entry): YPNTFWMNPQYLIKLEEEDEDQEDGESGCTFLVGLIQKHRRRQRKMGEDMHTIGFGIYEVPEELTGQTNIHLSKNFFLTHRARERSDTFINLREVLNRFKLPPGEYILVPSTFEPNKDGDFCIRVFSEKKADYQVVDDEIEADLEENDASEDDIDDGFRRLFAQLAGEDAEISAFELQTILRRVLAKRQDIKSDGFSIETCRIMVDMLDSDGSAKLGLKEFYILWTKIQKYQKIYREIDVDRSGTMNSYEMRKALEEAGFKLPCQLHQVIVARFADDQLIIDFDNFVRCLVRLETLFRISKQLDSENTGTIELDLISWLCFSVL
# [9] = cytotoxicity toward NIH3T3 fibroblasts, dose response, counter-screen, cell-based, ATP luminescence, mouse fibroblasts (AID 2010); format: functional;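 further: cells exposed to compound for about 90 hours before reading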
# [10] = NIH-3T3 fibroblast cytotoxicity, dose response, cytotoxicity control, cell-based, fluorescence, Alamar Blue, secondary assay (AID 2327); format: functional;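 further: NIH-3T3 mouse fibroblasts cultured with fluconazole at 8 µg/mL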
# [11] = inhibitors of intracellular T. cruzi replication, confirmation, NIH3T3 host cells, beta-gal luminescence (AID 2044); format: functional, cell-based;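 further: intracellular parasites grown in NIH/3T3 mouse fibroblasts as host cells; luminescent beta-galactosidase reporter signal from transgenic T. cruzi replicating inside host cells; inhibitors lower the luminescence signal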
# [12] = C. albicans growth with fluconazole, confirmation, fluorescence, retest (AID 2467); format: functional, cell-based
# [13] = inhibitors of firefly luciferase expression or activity, dose response, H4 neuroglioma cells, luminescence (AID 1990); format: functional, cell-based
# [14] = Luminescence Cell-Based Dose Response HTS to Identify Inhibitors of 5'UTR Stem-Loop Driven Prion Protein mRNA Translation in H4 Neuroglioblastoma Cells. [Related pubchem assays: 1827 (Project Summary), 1813 (Primary HTS)]; format: functional
# [15] = inhibitors of SNCA 5'UTR-driven reporter translation, confirmation, H4 neuroglioma cells, luminescence (AID 1988); format: functional, cell-based
compound,measurement,setting,value
Cc1cc(N)n2ncc(-c3ccccc3)c2n1,EC50,[1],0.137 µM (active)
same,AC50,[2],18.9 µM (active)
COc1ccc(CC(=O)Nc2ccccc2N2CCCC2)cc1OC,AC50,[2],12.6 µM (active)
CC(C)c1ccc(NC(=O)Cc2c(C(=O)O)n(C)c3ccccc23)cc1,AC50,[2],6.73 µM (active)
COc1ccc2c(c1OC)C(=O)OC2c1c(O)n(Cc2ccc(F)cc2)c(=O)[nH]c1=O (stereo not given),IC50,Genome polyprotein,69.7 µM (active)
Cc1c(NC(=O)COC(=O)COc2ccc(Nc3ccccc3)cc2)c(=O)n(-c2ccccc2)n1C,IC50,Large T antigen,35.3 µM (active)
Cc1ccc(C(C2=C(O)CC(C)(C)CC2=O)C2C(=O)CC(C)(C)CC2=O)s1 (stereo not given),IC50,[3],62.9 µM (active)
same,IC50,Genome polyprotein,29.4 µM (active)
COc1ccc(CC(=O)N2CCN(c3ccc(C4=NNC(=O)CC4C)cc3)CC2)cc1 (stereo not given),EC50,[4],< 0.088 µM (active)
same,AC50,[2],20.8 µM (active)
same,EC50,[5],> 112 µM (not active)
same,AC50,Cytochrome P450 2C9,8.91 µM (inconclusive)
Nc1c(C(=O)O)sc2nc(-c3ccccc3)cc(-c3ccc(Cl)cc3)c12,EC50,[6],> 195 µM (not active)
same,IC50,Genome polyprotein,70.8 µM (active)
C1CCCCC1.OCCN1CCN(C2Cc3cc(Cl)ccc3Sc3ccc(Cl)cc32)CC1 (stereo not given),AC50,INS1,13 µM (active)
same,CC50,[7],13.8 µM (active)
CC(=O)c1ccc(NC(=O)N2CCN(c3ccc(C)cc3)C(C)C2)cc1 (stereo not given),AC50,[2],3.56 µM (active)
CC1(C)CC(=O)C(C(C2=C(O)CC(C)(C)CC2=O)c2ccc(O)c([N+](=O)[O-])c2)=C(O)C1,IC50,Genome polyprotein,9.49 µM (active)
Cc1nc2ccc(S(=O)(=O)NCC(=O)N(C)Cc3ccccc3)cc2s1,AC50,[2],1.05 µM (active)
Cc1cc(C)cc(-n2ncc3c2CCCC3NC(=O)c2cc(C)n(C)n2)c1 (stereo not given),AC50,[2],4.51 µM (active)
Cc1ccc(CNc2ccc(N3CCOCC3)cc2)cc1,IC50,Large T antigen,5.62 µM (active)
O=C(O)CN1C(=O)/C(=C\c2ccccc2OCc2ccc(Cl)cc2)SC1=S,IC50,Genome polyprotein,43.3 µM (active)
CC(C)(C)c1cc(-c2nnc(S)n2-c2ccccc2F)[nH]n1,AC50,[2],2.1 µM (active)
O=[N+]([O-])c1ccc(N2CCN(c3ccc(O)cc3)CC2)cn1,IC50,Large T antigen,26.7 µM (active)
Oc1ccc(N2CCN(C(c3ccncc3)c3nnnn3C3CCCC3)CC2)cc1 (stereo not given),IC50,Large T antigen,5.61 µM (active)
CCN(CC)c1ccc(NC(=O)c2cccc(C)c2OC)c(C)c1,IC50,Large T antigen,32 µM (active)
COc1ccc(NC(=O)CN(C)C(=O)/C=C/c2ccc(S(=O)(=O)N3CCCCCC3)cc2)cc1,AC50,INS1,24.3 µM (active)
CC(C)(C)C(=O)Nc1ccc(C(=O)N/N=C/c2ccccc2OC(=O)c2ccc(Cl)cc2)cc1,AC50,INS1,2.83 µM (active)
COc1cc(/C=N/NC(=O)c2ccccc2O)ccc1OC(=O)CC1SC(=O)NC1=O (stereo not given),IC50,Large T antigen,35.1 µM (active)
CN(C)c1ccc(/C=N/NS(=O)(=O)c2ccc(Br)cc2)cc1,AC50,[2],33.5 µM (active)
Cc1ccc(N/N=C2\CCS(=O)(=O)c3sccc32)cc1,IC50,[8],> 50 µM (not active)
same,AC50,[2],0.311 µM (active)
CC(C)[C@H]1C(=O)O[C@H](C(C)C)C(=O)N(C)[C@@H](C(C)C)C(=O)O[C@H](C(C)C)C(=O)N(C)[C@@H](C(C)C)C(=O)O[C@H](C(C)C)C(=O)N1C [ENNIATIN B],EC50,[9],3.66 µM (active)
same,EC50,[10],3.22 µM (inconclusive)
same,EC50,[11],0.853 µM (active)
same,EC50,[12],0.374 µM (active)
same,EC50,[13],5.62 µM (active)
same,AC50,INS1,2.99 µM (active)
same,EC50,[14],> 120 µM (not active)
same,EC50,[15],> 120 µM (not active)
